Measured values published in patent US20100144763A1, “Pharmaceutical composition for inhibiting topoisomerase I and method for exploiting drug” (priority 2008, published 2010).

What was measured:
[1] = system: human breast MCF-7 carcinoma cells; experiment: MTT assay, cell growth inhibition / cytotoxicity; format: cell-based; conditions: MCF7, 24 h, read-out: IC50, cytotoxicity
Experimental: Example 1 relates to cell growth inhibition of EVO according to the present invention. Breast cancer MCF-7 cells are cultured in Dulbecco's modified Eagle medium (DMEM) supplemented with 10% heat-inactivated fetal bovine serum (FBS), and 100 μg/ml penicillin-streptomycin. Conditions were maintained in a humidified 95% air/5% CO2 incubator at 37° C. The MTT [3-(4,5-dimethylthiazol-2-yl)-2,5-diphenyl tetrazolium bromide] assay was described previously to test the cytotoxicity of reagents and cell viability (Lin, Tsai, Chen, Chang, Lee et al., 2008). Cells (5000 cells/well) are grown on a 96-well plate supplemented with DMEM medium (with 1% FBS) for 24 hours. Then, cells are treated with CPT or EVO ([…]), and the viability is determined by the reduction of MTT. An MTT stock solution (5 mg of MTT/ml of PBS) is added to the growing cultures (at a final concentration of 0.5 mg/ml). The OD is measured with a spectrophotometer at 560 nm. A blank with DMSO alone is measured and subtracted from all values.
The cytotoxic abilities of EVO and CPT are tested against human breast MCF-7 carcinoma cells, which express high levels of TopoI. CPT is used as a reference drug. Both compounds display efficient cytotoxicity after 24 h of drug exposure. […] Consequently, EVO is slightly less cytotoxic than CPT against breast MCF-7 carcinoma cells.

[2] = molecular target: T1, DNA TopoI from the vaccinia virus (Vaccinia virus, UniProt P68698); format: biochemical
T1 construct: purchased EPICENTRE Biotechnologies, Madison, Wis

[3] = molecular target: T2, purified recombinant eukaryotic TopoI (Homo sapiens, UniProt P11387); format: biochemical; conditions: supercoiled DNA relaxation, TopoI prepared from recombinant DNA
T2 sequence (P11387 1-765): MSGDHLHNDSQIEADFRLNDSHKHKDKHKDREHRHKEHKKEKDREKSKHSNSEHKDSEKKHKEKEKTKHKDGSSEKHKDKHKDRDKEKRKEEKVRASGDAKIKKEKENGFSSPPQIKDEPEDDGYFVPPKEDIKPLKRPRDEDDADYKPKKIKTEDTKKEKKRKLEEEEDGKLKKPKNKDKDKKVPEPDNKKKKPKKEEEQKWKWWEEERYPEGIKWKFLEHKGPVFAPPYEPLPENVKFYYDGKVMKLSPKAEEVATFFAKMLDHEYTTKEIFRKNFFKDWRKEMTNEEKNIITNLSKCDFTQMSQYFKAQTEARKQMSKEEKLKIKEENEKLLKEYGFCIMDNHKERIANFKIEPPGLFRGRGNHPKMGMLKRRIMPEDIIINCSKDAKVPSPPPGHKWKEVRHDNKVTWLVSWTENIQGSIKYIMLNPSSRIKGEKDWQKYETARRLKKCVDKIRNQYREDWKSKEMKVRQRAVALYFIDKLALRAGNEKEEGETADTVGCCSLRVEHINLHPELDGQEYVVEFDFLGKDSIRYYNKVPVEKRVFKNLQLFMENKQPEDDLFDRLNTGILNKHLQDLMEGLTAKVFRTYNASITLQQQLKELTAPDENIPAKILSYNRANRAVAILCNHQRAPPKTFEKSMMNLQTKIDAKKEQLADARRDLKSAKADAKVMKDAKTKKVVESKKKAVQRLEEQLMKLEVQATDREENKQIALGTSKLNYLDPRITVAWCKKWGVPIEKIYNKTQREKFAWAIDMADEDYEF

[4] = molecular target: T3, TopoI-DNA complex in 3H-thymidine-labeled MCF-7 cells (Homo sapiens, UniProt P11387); experiment: KCl/SDS precipitation assay, TopoI-DNA complex trapping; format: cell-based; conditions: 30 μM, 60 minutes, FIG. 4
T3 construct: endogenous in cells; host or cells: MCF-7
T3 sequence (P11387 1-765): T2 sequence (P11387 1-765)
Experimental: Example 4 relates to using a KCl/SDS precipitation assay to show TopoI-DNA complex trapping activity of EVO according to the present invention. The formation of a cleavable complex in intact cells is quantified by a KCl-sodium dodecylsulfate (SDS) precipitation technique, a modified procedure described previously by Yoshinari et al. (1993). Cellular DNA is labeled by adding ^3H-thymidine to the medium to a final concentration of 10 μCi/ml. After an overnight incubation, cells are plated to a density of 1×10^5 cells/well in a 24-well plate for another overnight incubation, and treated with various concentrations of EVO (0˜30 μM) for 60 minutes. The medium is removed from each well, and cells are washed with phosphate-buffered saline (PBS) and lysed with 1 ml of prewarmed (65° C.) lysis solution (1.25% SDS, 5 mM EDTA, 0.4 mg/ml salmon sperm DNA). Lysate is sheared using a 21-gauge needle. The samples as background control are treated by the above procedure but with proteinase K (400 μg/ml) in the lysis buffer, and are incubated at 50° C. for 2 hour. KCl (325 mM), at 250 μl, is added to each sample, vortexed vigorously, cooled on ice for 10 minutes, and centrifuged at 2500 rpm for 10 minutes at 4° C. […] The pellet is resuspended in 400 μl prewarmed H2O (65° C.) and combined with 4 ml scintillation liquid, and the radioactivity counts are determined using a liquid scintillation counter. […]

[5] = molecular target: T4, free-form TopoI in MCF-7 cells (Homo sapiens, UniProt P11387); experiment: depletion assay for free-form TopoI (immunoblotting); format: cell-based
T4 construct: endogenous in cells; host or cells: MCF-7
T4 sequence (P11387 1-765): T2 sequence (P11387 1-765)
Experimental: Example 3 relates to detection of the levels of free-form TopoI from breast cancer cells reduced by EVO according to the present invention. Provided that EVO is able to fix TopoI on DNA, the level of free-form TopoI should be decreased. Monolayers that are breast cancer MCF-7 cells of 50%—80% confluent are treated with drugs for a short time, and then cellular proteins are extracted from the MCF-7 cells. After that, the cellular proteins are separated electrophoretically in a 7.5% SDS polyacrylamide gel and electro-transferred to a polyvinylidene difluoride (PVDF) membrane. The membrane is incubated with the primary antibody (rabbit anti-human topoisomerase I antisera) at room temperature for 2 hours, and then incubated with a horseradish peroxidase-conjugated secondary immunoglobulin G (IgG) antibody. The immunoreactive bands are visualized with enhanced chemiluminescent reagents and photographed using a gel documentation system.
A depletion assay for free-form TopoI is performed to confirm the effect of EVO on DNA topological catalysis of TopoI. This assay is based on the ability of CPT to trap TopoI and DNA to form a CPT-TopoI-DNA triple complex, to see if EVO inhibits TopoI activity through a similar mechanism. […] Depletion of TopoI protein by EVO is also detected in a concentration-dependent manner after 1 hour of treatment. […]

SMILES: CC[C@@]1(O)C(=O)OCc2c1cc1n(c2=O)Cc2cc3ccccc3nc2-1 [CPT, Camptothecin, reference compound]
- IC50 [1]: 3.23 µM
- inhibition of supercoiled plasmid DNA relaxation catalyzed by TopoI [2]: retain a greater amount of uncatalytic supercoiled DNA in a dose-dependent manner

SMILES: CN1c2ccccc2C(=O)N2CCc3c([nH]c4ccccc34)C21 (stereo not drawn) [EVO, Evodiamine]
- inhibition activity toward purified recombinant eukaryotic TopoI [3]: inhibited
- 3H-thymidine-labeled DNA trapped in a covalent complex with TopoI [4]: 43.6%
- IC50 [1]: 6.02 µM
- inhibition of supercoiled plasmid DNA relaxation catalyzed by TopoI [2]: inhibitory activity on TopoI catalytic relaxation in a dose-dependent manner
- relative level of DNA-unlinked TopoI protein versus the control ([5]; 0˜10 μM, 1 hour of treatment, FIG. 3B): < 40%
- TopoI protein level in comparison to the untreated control ([5]; 10 μM, 120-minute treatment, FIG. 3A): < 20%

SMILES: O=c1c2ccccc2nc2n1CCc1c-2[nH]c2ccccc12 [rutaecarpine]
- inhibitory activity on TopoI catalytic supercoiled plasmid relaxation, compared with CPT and EVO [2]: substantially equivalent to those of CPT and EVO
